# Data reported in patent US20230263808A1 (UNIVERSITY OF FLORIDA RESEARCH FOUNDATION, INCORPORATED, priority 2020, published 2023).
# “Also recorded” adds a separate entry of the source.
# How the values were obtained:
# [1] = test system: IL-1β-induced IL-6 secretion by A549 lung cells; assay: IL-1β-induced IL-6 secretion by A549 lung cells (AlphaLISA); type: cell-based; details: 10 μM
# Text: A) Correlation of correlation (COC) plots where each point represents the Pearson correlation coefficient, r, between a distinct gene expression or GR-peptide interaction assay with assays indicated on the x and y axes. B) The effects of all tested compounds on IL-1β-induced secretion of IL-6 (y axes) and GC-regulated phenotypes indicated on the x axes. C) The effects of all tested compounds on IL-1β-induced secretion of IL-6 (y axis) and bone mineralization (x axis). D) IL-1β-induced IL-6 production by A549 cells treated with 10 μM of the indicated compounds was compared by AlphaLISA. E-H) Myoblasts were assayed as described in FIG. 8. I) Representative myoblasts imaged during the mitochondrial potential assay. J) Plasma TNFα levels of C57BL/6 male mice treated pretreated with the indicated ligands. K) Changes in lean mass of mice in panel J were determined by whole-body NMR after an additional 18 h LPS treatment. Data shown are mean+SEM.
# In order to understand whether effects on skeletal muscle could be dissociated from anti-inflammatory effects of the ligands, we profiled the compounds for suppression of IL1β-induced IL-6 secretion by A549 lung cells. Examining the correlations between assays can be used to identify dissociated assays that selectively correlate with a given phenotype, predicting discovery of dissociated ligands. […] We call this a correlation of correlations (COC) plot. […] These include recruitment of NCOA2 and NCOA3 peptides, coactivators that we and others have shown to be required for GC-dependent suppression of inflammation in different cell types (FIG. 11, A). However, for the mitochondrial assay and IL-6, there are dissociated assays shown by points that are far out from the regression line in the COC plot (FIG. 7, A). For example, interaction of CHD9 with GR predicted mitochondrial activity but not Glut4 translocation (FIG. 11, B), while interaction with the CENPR peptide selectively predicted effects on Glut4 translocation (FIG. 11, C). […] Assays that correlated with effects of the ligands on GR nuclear translocation were also highly correlated with Glut4 translocation and suppression of IL-6 secretion (FIG. 11, F). Therefore, the COC curves provide a way to identify common signaling mechanisms between different GR target tissues and signaling pathways.
# [2] = test system: mitochondrial activity, pAKT, protein synthesis, and bone; assay: Compound profiling platform, overall profile (FIG. 15); type: cell-based; details: 10 uM
# Method: N=4-6 from two different experiments. […] D) Mitochondrial activity was measured in myoblasts using high content imaging with mitotracker dye after 24 treatment. New amino acid incorporation was measured with LICOR in cell western for puromycin (SunSet assay). […] N=3, mean+SEM. […] N=4, mean+SEM, 2-way ANOVA.
# To avoid such effects on myogenesis, we switched myoblasts to differentiation media, and then on day 4, added 10 μM cytarabine, a chemotherapy agent that kills dividing cells, and then adding GCs on day 6 or 7 and completing assays in day 8 (FIG. 8).
# Physiologically, the effects of GCs on protein balance and Glut4 translocation vary in vivo depending upon the stressor. For example, GCs mediate atrophy in response to fasting but not exercise. […] To assess protein degradation, we measured chymotrypsin-like proteasomal activity (FIG. 2, A). The activating phosphorylation of AKT at Thr308 (pAKT) was measured using a LI-COR In-Cell Western assay (FIG. 2, B and C). The rate-limiting step in insulin-mediated glucose uptake is the translocation of the glucose transporter, Glut4, to the surface membrane, which we also measured by In-Cell Western without permeabilizing the myotubes (FIG. 2, D). Surface Sensing of Translation (SUnSET) (Schmidt et al., Nat Methods 6, 275-277, 2009) assay was used to measure protein synthesis by In-Cell Western, following treatment of myotubes with a low dose of puromycin, which incorporates into translating proteins, but at a low enough level to provide a readout for global protein synthesis (FIG. 2, E). Lastly, we developed a high-content imaging assay in myoblasts stained with a MitoTracker dye, so that individual mitochondrial networks could be visualized with adequate resolution to quantitate area, segmentation, branching, and fluorescence intensity which is a measure of mitochondrial membrane potential (ψm).
# Additional studies were performed to assess activities of the various compounds identified from the previous profiling.
SMILES,inhibition of IL-1β-induced IL-6 secretion (anti-inflammatory) [1],"overall profile in compound profiling (anabolic effects, agonism) [2]"
CC#CC1(O)CCC2C3CCc4cc(C(=O)Nc5cccnc5C)ccc4C3C(OCc3ccc(Cl)cc3)CC21C (centres unmarked) [SR16025],weakly anti-inflammatory,more antagonistic SGRMs; also recorded: anabolic effects
C=CCOC1CC2(C)C(CCC2(O)C#CC)C2CCc3cc(C(=O)Nc4cccnc4C)ccc3C12 (centres unmarked) [SR11466],as efficiently as Dex; also recorded: fully inhibiting IL-6 secretion; also recorded: efficacious; also recorded: inhibited IL-6 secretion as efficiently as dexamethasone,anti-inflammatory but muscle sparing; also recorded: anabolic effects
CC#CC1(O)CCC2C3CCc4cc(C(=O)Nc5cccnc5C)ccc4C3C(OCc3ccccc3Cl)CC21C (centres unmarked) [SR16024],partially inhibited; also recorded: weakly anti-inflammatory,more antagonistic SGRMs; also recorded: anabolic effects
CC#CC1(O)CCC2C3CCc4cc(C(=O)Nc5cnccc5C)ccc4C3C(O)CC21C (centres unmarked) [SR15421],anti-inflammatory,anabolic effects
